This note sets out measurements from patent US20250073146A1, “MIXED SURFACTANT FOR PREPARING TRANSPARENT MICROEMULSION AND FINE NANOEMULSION, AND COSMETIC COMPOSITION PREPARED USING THE SAME” (BIOBEAUTECH Co., Ltd., priority 2023, published 2025).

The data set can be described thus: HLB of surfactant. The class given is physicochemical.

For polyglyceryl-10 oleate, the “average HLB” value is 12.5.
On to sucrose distearate, for which the “average HLB” value is reported as 6.3.
